Source: PMC8639500, “SSTP1, a Host Defense Peptide, Exploits the Immunomodulatory IL6 Pathway to Induce Apoptosis in Cancer Cells” (Frontiers in Immunology, 2021)
Residues, ends and D or L forms follow the SMILES beside them.

Tests used:
Type in all cases: cell-based, human
MDA-MB-231 cells = details: 48 h
Protocol: (§1) Concentration- and time-dependent effects on cell growth inhibition were measured using the MTT [3-(4,5-dimethylthiazol-2-yl)−2,5-diphenyltetrazolium bromide] assay. 5000 cells/well were seeded in 96-well plate and were treated with peptides for 48h. Cells were incubated with MTT (1.25 mg/ml) for 2 hours at 37°C. The blue formazan crystals were solubilized in isopropanol and read at 595 nm.
IC50 value for HSC-4 cells and MDA-MB-231cells were calculated with Dose-response model. Analysis of dose-response data is made available through the ‘drc’ package in R environment for statistical computing. The “drm” function in the package “drc” is a general model fitting function for analysis of concentration/dose/time-effect/response data and the four parameter a log-logistic model was fitted for estimating the slope, lower, upper and IC50 values. […] The statistical significance between two groups was analyzed using Students paired two-tailed t-test.
Figure 10 Sensitivity of cancer cells to SSTP1 depends on the level of IL6Rα. […] (C) Growth inhibition analyzed by MTT assay using 10 μM SSTP1 treated for 48h. (D) Growth inhibitory curve of SSTP1 for MDA-MB-231 cells and HEK-293 cells analyzed after 48h treatment with SSTP1 and Hemolysis induced by SSTP1 on human RBC. […] (F) The blots were quantified using ImageJ, and the graphs were plotted. *p < .05, **p < .01, ***p < .001.

HSC-4 cells [1] = test: MTT growth inhibition assay, HSC-4 cells; details: 48 h
Protocol: as §1
IC50 value for HSC-4 cells and MDA-MB-231cells were calculated with Dose-response model. Analysis of dose-response data is made available through the ‘drc’ package in R environment for statistical computing. […] The statistical significance between two groups was analyzed using Students paired two-tailed t-test.
Figure 1 SSTP1 induces apoptosis in oral cancer cells (A) HSC-4 cells were treated with peptides SSTP1 and SSTP2 at different concentrations in 0.5% DMEM for 48 h, and MTT assay was performed to calculate % growth inhibition. […] (C)The quantified populations are represented in the graph. […] (D) The HSC-4 cells treated with 10 μM SSTP1 or SSTP2 for indicated time intervals were used for western blot analyses (E) Densitometric analysis was done for the bands, and fold change based on 0min was calculated. […]

HSC-4 cells [2] = test: MTT growth inhibition by SSTP1 with or without IL6 pathway inhibitors; details: 4h SSTP1 (10 μM), pre-treatment LMT-28 60 μM 1.5 h, Anti-IL6Rα 10µg/ml 2h, SC144 40 μM 2h
Protocol: as §1
Figure 8 SSTP1-induced pcJUN activation depends on JNK and on gp130 and IL6Rα. (A) HSC-4 cells treated with SSTP1 (30 minute) and the indicated inhibitors were used for western blot analysis of the indicated molecules (B) Densitometric analysis was done for the bands of (a) and relative phosphorylation based on untreated is plotted. (C) The cells treated with SSTP1 (30 minutes) and IL6Rα antibody or SC144 were used for western blot analysis of the indicated molecules. (D) Densitometric analysis was done for the bands of (C) and relative phosphorylation based on untreated is plotted. (E) Growth inhibition analyzed by MTT assay after 4h treatment with SSTP1(10 μM) with or without the inhibitors. LMT-28 (60 μM). For all the experiments SSTP1 (10 μM) was used with or without LMT-28 (60 μM), Ruxolitinib (30 μM) or SP600125 (20 μM), Anti-IL6Rα (10µg/ml) or SC144 (40 μM). […]

## CC[C@H](C)[C@H](NC(=O)[C@H](CC(C)C)NC(=O)[C@H](CC(C)C)NC(=O)[C@@H]1CCCN1C(=O)[C@H](CC(C)C)NC(=O)[C@@H](N)Cc1ccccc1)C(=O)N[C@@H](CO)C(=O)N[C@@H](C)C(=O)N[C@@H](CC(C)C)C(=O)N[C@H](C(=O)N[C@@H](CO)C(=O)N[C@@H](CC(C)C)C(=O)N[C@@H](Cc1ccccc1)C(=O)N1CCC[C@H]1C(=O)N[C@@H](CCCCN)C(=O)N[C@@H](CC(C)C)C(=O)NCC(=O)N[C@@H](CCCCN)C(=O)O)[C@@H](C)O [SSTP1] (H-FLPLLISALTSLFPKLGK-OH)
MDA-MB-231 cells
  IC50: 4.5 µM
HSC-4 cells [1]
  IC50: 10.2 µM

## O=C(NNc1nc2cc(F)ccc2n2cccc12)c1cnccn1 [SC144]
HSC-4 cells [2]
  effect on SSTP1-induced growth inhibition: significantly inhibited

## CC[C@H](C)[C@H](NC(=O)[C@H](CCCNC(=N)N)NC(=O)[C@H](CCCNC(=N)N)NC(=O)[C@@H]1CCCN1C(=O)[C@H](CC(C)C)NC(=O)[C@@H](N)Cc1ccccc1)C(=O)N[C@@H](CO)C(=O)N[C@@H](C)C(=O)N[C@@H](CCCNC(=N)N)C(=O)N[C@H](C(=O)N[C@@H](CO)C(=O)N[C@@H](CC(C)C)C(=O)N[C@@H](Cc1ccccc1)C(=O)N1CCC[C@H]1C(=O)N[C@@H](CCCCN)C(=O)N[C@@H](CCCNC(=N)N)C(=O)NCC(=O)N[C@@H](CCCCN)C(N)=O)[C@@H](C)O [SSTP2] (H-FLPRRISARTSLFPKRGK-NH2)
HSC-4 cells [1]; HSC-4 cells, MTT
  cytotoxicity (growth inhibition) in words: negligible cytotoxicity
